The first experiment has as its target ΔF508-CFTR (Homo sapiens, UniProt P13569, DEL508-508). Description: Fluorescence (YFP-H148Q/I152L) I− influx assay of ΔF508-CFTR potentiator activity in FRT cells. Type of experiment: cell-based. Conditions: phenylglycine containing compounds, 27° C. 24 h, forskolin 20 μM, read-out: Ka. Details: expressed in transfected cells. The method, then: Clonal populations of Fischer rat thyroid (FRT) epithelial cells stably co-expressing human ΔF508-CFTR and the high-sensitivity halide-sensing green fluorescent analog YFP-H148Q/I152L (Galietta et al., A.S. (2001) FEBS Lett. 499, 220-224) were generated by liposome transfection and limiting dilution with Zeocin/G418 selection. More than 100 clones were evaluated for high fluorescence and ΔF508-CFTR plasma membrane targeting after growth at 27° C. for 24 hours. For screening, cells were cultured on plastic in Coon's modified F12 medium supplemented with 10% fetal bovine serum, 2 mM L-glutamine, 100 U/ml penicillin, and 100 μg/ml streptomycin, and plated on black 96-well microplates (Corning-Costar 3904) at 30,000 cells/well. For short-circuit measurements cells were cultured on Snapwell permeable supports (Corning-Costar) at 500,000 cells/insert. Human nasal epithelium cells from CF patients were cultured on Snapwell inserts and allowed to differentiate in a hormone-supplemented medium (Galietta et al., Am. J. Physiol., […]). Some measurements were done using stably transfected FRT cells expressing YFP-H148Q and wildtype- or G551D-CFTR (Galietta et al., (2001) J. Biol. Chem. 276, 19723-19728). Patch clamp experiments were done on ΔF508-CFTR-expressing FRT cells plated in 35-mm Petri dishes.
Screening was carried out using a Beckman integrated system containing a 3-meter robotic arm, CO2 incubator containing microplate carousel, plate-washer, liquid handling workstation, bar code reader, delidding station, plate sealer, and two FluoStar fluorescence plate readers (Galaxy, BMG Lab Technologies), each equipped with dual syringe pumps and HQ500/20X ([…]) excitation and HQ535/30M (535±15 nm) emission filters (Chroma). Software was written in VBA (Visual Basic for Applications) to compute baseline-subtracted fluorescence slopes (giving halide influx rates).
For assay of ΔF508-CFTR potentiator activity the incubator (27° C., 90% humidity, 5% CO2/95% air) was loaded with forty-to-sixty 96-well plates containing FRT cells. After an 18-24 hour incubation plates were washed 3 times with PBS (300 μl/wash) leaving 50 μl PBS. 10 μl of PBS containing 120 μM forskolin was added, and after 5 min test compounds (0.6 μl of 0.25 mM DMSO solution) were added to each well to give 2.5 μM final compound concentrations. After 15 min, 96-well plates were transferred to a plate reader for fluorescence assay. Each well was assayed individually for I^− influx by recording fluorescence continuously (200 ms per point) for 2 seconds (baseline) and then for 12 seconds after rapid (<1 s) addition of 160 μL of isosmolar PBS in which 137 mM Cl^− was replaced by I^−. I^− influx rates were computed from initial fluorescence versus time-curve slopes (determined by 3rd order polynomial regression) after normalization for total fluorescence (background subtracted initial fluorescence). All compound plates contained negative control (DMSO vehicle alone) and positive controls (genistein, 5 μM and 50 μM). Assay analysis indicated a Z′-factor of >0.7 (Zhang et al., J. Biomol. Screen 4:67-73 (1999)).
The high-throughput screen was designed to identify compounds that activated ΔF508-CFTR when expressed at the cell plasma membrane. FRT epithelial cells co-expressing ΔF508-CFTR and a high sensitivity yellow fluorescent protein-based halide indicator were incubated at 27° C. for 24 h to permit ΔF508-CFTR plasma membrane targeting (FIG. 1, panel A). After washing, forskolin (20 μM) and test compounds (2.5 μM) were added to individual wells of 96-well plates. The I^− influx assay was carried out ˜15 min later by measurement of the time course of decreasing YFP fluorescence after creation of an inwardly-directed I^− gradient. A high concentration of forskolin was used to identify ΔF508-CFTR potentiators that may interact directly with ΔF508-CFTR rather than alter cAMP concentration. […]
ΔF508-CFTR, sequence (P13569 with tags, fused parts or gaps DEL508-508): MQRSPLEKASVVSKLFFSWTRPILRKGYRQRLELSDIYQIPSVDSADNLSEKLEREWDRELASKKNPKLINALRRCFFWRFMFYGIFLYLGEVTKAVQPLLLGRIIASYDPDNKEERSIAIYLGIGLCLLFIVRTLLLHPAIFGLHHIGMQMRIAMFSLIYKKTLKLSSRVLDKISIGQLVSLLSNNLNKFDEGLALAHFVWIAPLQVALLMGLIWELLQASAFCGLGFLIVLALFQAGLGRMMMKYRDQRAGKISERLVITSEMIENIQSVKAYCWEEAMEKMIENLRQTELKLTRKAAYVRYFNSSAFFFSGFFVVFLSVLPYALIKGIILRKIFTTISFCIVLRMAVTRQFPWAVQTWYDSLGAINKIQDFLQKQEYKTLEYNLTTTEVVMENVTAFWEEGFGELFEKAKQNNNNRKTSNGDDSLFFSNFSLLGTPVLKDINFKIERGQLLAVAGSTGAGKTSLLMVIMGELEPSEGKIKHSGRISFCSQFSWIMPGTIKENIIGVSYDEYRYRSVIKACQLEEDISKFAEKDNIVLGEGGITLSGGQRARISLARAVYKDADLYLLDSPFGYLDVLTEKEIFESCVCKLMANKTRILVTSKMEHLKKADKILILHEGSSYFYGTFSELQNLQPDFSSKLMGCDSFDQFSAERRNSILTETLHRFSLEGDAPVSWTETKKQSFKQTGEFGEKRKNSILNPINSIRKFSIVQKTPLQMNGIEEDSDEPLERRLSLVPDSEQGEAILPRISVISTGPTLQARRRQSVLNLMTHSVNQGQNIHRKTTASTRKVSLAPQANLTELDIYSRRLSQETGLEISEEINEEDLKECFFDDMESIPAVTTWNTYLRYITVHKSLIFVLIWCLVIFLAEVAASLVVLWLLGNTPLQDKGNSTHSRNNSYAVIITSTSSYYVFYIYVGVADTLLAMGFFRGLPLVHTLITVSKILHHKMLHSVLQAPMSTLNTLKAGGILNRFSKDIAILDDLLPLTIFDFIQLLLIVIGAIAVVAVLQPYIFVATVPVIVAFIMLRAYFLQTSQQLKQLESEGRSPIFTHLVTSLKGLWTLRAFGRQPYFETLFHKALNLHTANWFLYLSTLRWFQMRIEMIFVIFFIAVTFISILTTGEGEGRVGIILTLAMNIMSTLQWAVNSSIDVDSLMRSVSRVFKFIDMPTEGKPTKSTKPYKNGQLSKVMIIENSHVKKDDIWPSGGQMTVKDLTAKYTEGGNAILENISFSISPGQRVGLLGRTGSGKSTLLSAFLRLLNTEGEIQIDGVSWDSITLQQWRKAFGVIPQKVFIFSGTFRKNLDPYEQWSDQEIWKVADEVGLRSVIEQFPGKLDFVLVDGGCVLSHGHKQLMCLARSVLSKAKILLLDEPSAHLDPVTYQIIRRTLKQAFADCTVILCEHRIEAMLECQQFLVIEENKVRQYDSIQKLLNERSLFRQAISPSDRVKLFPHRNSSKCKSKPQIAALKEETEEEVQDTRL
For the compound `CC(=O)NCC(=O)N(C)C(C(=O)Nc1ccc2c(c1)OCCO2)c1ccccc1` (centres unmarked) [Compound P-2, 2-[(2-Acetylamino-acetyl)-methyl-amino]-N-(2,3-dihydro-benzo[1,4]dioxin-6-yl)-2-phenyl-acetamide], the EC50 worked out at 0.3 µM.
For `COc1ccc(C(C(=O)Nc2ccc(C(C)C)cc2)N(C)C(=O)Cc2c[nH]c3ccccc23)cc1` (centres unmarked) [Compound P-3, 2-[(2-1H-Indol-3-yl-acetyl)-methyl-amino]-N-(4-isopropyl-phenyl)-2-(4-methoxy-phenyl)-acetamide], the EC50 turned out to be 0.34 µM.
Still for that read-out and setting: with `COc1ccc(NC(=O)C(c2ccccc2)N(C)C(=O)Cc2c[nH]c3ccccc23)cc1` (centres unmarked) [Compound P-5, 2-[(2-1H-Indol-3-yl-acetyl)-methyl-amino]-N-(4-methoxy-phenyl)-2-phenyl-acetamide] the figure was 0.7 µM; with `CC(C)c1ccc(NC(=O)C(NC(=O)Cc2c[nH]c3ccccc23)c2ccccc2)cc1` (centres unmarked) [Compound P-6, 2-(2-1H-Indol-3-yl-acetylamino)-N-(4-isopropyl-phenyl)-2-phenyl-acetamide], 0.88 µM.
Still for that read-out and setting: with `Cc1ccc(C(C(=O)Nc2ccc3c(c2)OCO3)N(C)C(=O)Cc2c[nH]c3ccccc23)cc1` (centres unmarked) [Compound P-7, N-Benzo[1,3]dioxol-5-yl-2-[(2-1H-indol-3-yl-acetyl)-methyl-amino]-2-p-tolyl-acetamide] the figure was 1.33 µM; with `COc1ccc(NC(=O)C(c2ccc(OC)cc2)N(C)C(=O)Cc2c[nH]c3ccccc23)cc1` (centres unmarked) [Compound P-8, 2-[(2-1H-Indol-3-yl-acetyl)-methyl-amino]-2,N-bis-(4-methoxy-phenyl)-acetamide], 2.13 µM; with `Cc1ccc(C(NC(=O)Cc2cc3ccccc3[nH]2)C(=O)Nc2ccc3c(c2)OCCO3)cc1` (centres unmarked) [Compound P-9, N-(2,3-Dihydro-benzo[1,4]dioxin-6-yl)-2-(2-1H-indol-2-yl-acetylamino)-2-p-tolyl-acetamide], 2.33 µM.
The same measure, in the same setting: with `COc1ccc(C(C(=O)Nc2ccc3c(c2)OCCO3)N(C)C(=O)Cc2c[nH]c3ccccc23)cc1` (centres unmarked) [Compound P-10, N-(2,3-Dihydro-benzo[1,4]dioxin-6-yl)-2-[(2-1H-indol-3-yl-acetyl)-methyl-amino]-2-(4-methoxy-phenyl)-acetamide] the figure was 2.71 µM.

The experiment is the same for the next values; noted with them: sulfonamide containing compounds, 27° C. 24 h, forskolin 20 μM, read-out: Ka.
Consider `CCN(c1ccccc1)S(=O)(=O)c1ccc2[nH]cc(C(=O)NC3CCCCCC3)c(=O)c2c1` [Compound S-2], for which the EC50 was found to be 0.02 µM.
Same read-out and setting: with `CCN(c1ccccc1)S(=O)(=O)c1ccc2[nH]cc(C(=O)NC3CCCCC3)c(=O)c2c1` [Compound S-4] the figure was 0.03 µM.
Same read-out and setting: with `C=CCN(c1ccccc1)S(=O)(=O)c1ccc2[nH]cc(C(=O)NCCCC)c(=O)c2c1` [Compound S-6] the figure was 0.11 µM.
For the compound `C=CCN(c1ccccc1)S(=O)(=O)c1ccc2[nH]cc(C(=O)NC3CCCCCC3)c(=O)c2c1` [Compound S-7], the EC50 turned out to be 0.12 µM.
On the same count and under the same terms, with `Cc1ccc(C)c(N(C)S(=O)(=O)c2ccc3[nH]cc(C(=O)NCc4ccccn4)c(=O)c3c2)c1` [Compound S-8] the figure was 0.13 µM; with `CCN(c1ccccc1)S(=O)(=O)c1ccc2[nH]cc(C(=O)NCCCOC)c(=O)c2c1` [Compound S-9, 6-(Ethyl-phenyl-sulfamoyl)-4-oxo-1,4-dihydro-quinoline-3-carboxylic acid (3-methoxy-propyl)-amide], 0.14 µM; with `C=CCN(c1ccccc1)S(=O)(=O)c1ccc2[nH]cc(C(=O)NCc3ccccn3)c(=O)c2c1` [Compound S-11], 0.16 µM.
`C=CCN(c1ccccc1)S(=O)(=O)c1ccc2[nH]cc(C(=O)NCCCCCC)c(=O)c2c1` [Compound S-12]: the EC50 was determined as 0.19 µM.
The same measure, in the same setting: with `CCCCNC(=O)c1c[nH]c2ccc(S(=O)(=O)N(C)c3ccccc3C)cc2c1=O` [Compound S-13] the figure was 0.2 µM; with `CCOc1ccccc1N(C)S(=O)(=O)c1ccc2[nH]cc(C(=O)NCC3CCCO3)c(=O)c2c1` (centres unmarked) [Compound S-14], 0.2 µM; with `CCCCCNC(=O)c1c[nH]c2ccc(S(=O)(=O)N(C)c3cccc(C)c3)cc2c1=O` [Compound S-15], 0.22 µM.
Same read-out and setting: with `CCN(c1ccccc1)S(=O)(=O)c1ccc2[nH]cc(C(=O)NCCC3=CCCCC3)c(=O)c2c1` [Compound S-16] the figure was 0.24 µM; with `CCN(c1ccccc1)S(=O)(=O)c1ccc2[nH]cc(C(=O)NCC3CCCO3)c(=O)c2c1` (centres unmarked) [Compound S-17], 0.24 µM; with `CCc1ccccc1N(C)S(=O)(=O)c1ccc2[nH]cc(C(=O)NCc3ccccn3)c(=O)c2c1` [Compound S-18], 0.27 µM.
The same measure, in the same setting: with `COCCCNC(=O)c1c[nH]c2ccc(S(=O)(=O)N(C)c3cc(C)ccc3C)cc2c1=O` [Compound S-19] the figure was 0.29 µM; with `CCCCNC(=O)c1c[nH]c2ccc(S(=O)(=O)N(C)c3c(C)cccc3C)cc2c1=O` [Compound S-20, 6-[(2,6-Dimethyl-phenyl)-methyl-sulfamoyl]-4-oxo-1,4-dihydro-quinoline-3-carboxylic acid butylamide], 0.33 µM; with `CCN(c1ccc(F)cc1)S(=O)(=O)c1ccc2[nH]cc(C(=O)NC3CCCC3)c(=O)c2c1` [Compound S-21, 6-[Ethyl-(4-fluoro-phenyl)-sulfamoyl]-4-oxo-1,4-dihydro-quinoline-3-carboxylic acid cyclopentylamide], 0.33 µM.
For `CCOC(CNC(=O)c1c[nH]c2ccc(S(=O)(=O)N(C)c3ccc(CC)cc3)cc2c1=O)OCC` [Compound S-22], the EC50 was determined as 0.36 µM.
The same measure, in the same setting: with `COc1ccc(Cl)cc1N(C)S(=O)(=O)c1ccc2[nH]cc(C(=O)NCCC3=CCCCC3)c(=O)c2c1` [Compound S-23] the figure was 0.37 µM.
Turning to `CCN(CC)S(=O)(=O)c1ccc2[nH]cc(C(=O)NCc3ccc4c(c3)OCO4)c(=O)c2c1` [Compound S-24], the EC50 was determined as 0.38 µM.
On to `CCC(C)NC(=O)c1c[nH]c2ccc(S(=O)(=O)N(C)c3cccc(C)c3)cc2c1=O` (centres unmarked) [Compound S-25, 6-(Methyl-m-tolyl-sulfamoyl)-4-oxo-1,4-dihydro-quinoline-3-carboxylic acid sec-butylamide], for which the EC50 was 0.44 µM.
Still for that read-out and setting: with `CCc1ccccc1N(C)S(=O)(=O)c1ccc2[nH]cc(C(=O)NC(C)CC)c(=O)c2c1` (centres unmarked) [Compound S-26] the figure was 0.44 µM; with `CCN(c1ccccc1)S(=O)(=O)c1ccc2[nH]cc(C(=O)NCc3ccco3)c(=O)c2c1` [Compound S-27], 0.46 µM; with `CCN(c1cccc(C)c1)S(=O)(=O)c1ccc2[nH]cc(C(=O)NCCCOC)c(=O)c2c1` [Compound S-28], 0.48 µM.
On the same count and under the same terms, with `Cc1cccc(N(C)S(=O)(=O)c2ccc3[nH]cc(C(=O)NCCC4=CCCCC4)c(=O)c3c2)c1` [Compound S-29, 6-(Methyl-m-tolyl-sulfamoyl)-4-oxo-1,4-dihydro-quinoline-3-carboxylic acid (2-cyclohex-1-enyl-ethyl)-amide] the figure was 0.49 µM; with `CCN(c1ccc(F)cc1)S(=O)(=O)c1ccc2[nH]cc(C(=O)NCC3CCCO3)c(=O)c2c1` (centres unmarked) [Compound S-30, 6-[Ethyl-(4-fluoro-phenyl)-sulfamoyl]-4-oxo-1,4-dihydro-quinoline-3-carboxylic acid (tetrahydro-furan-2-ylmethyl)-amide], 0.54 µM.
The same measure, in the same setting: with `CCCNC(=O)c1c[nH]c2ccc(S(=O)(=O)N(C)c3cccc(C)c3)cc2c1=O` [Compound S-31] the figure was 0.56 µM.
